15 compounds from PMC11778240, “Synthesis and preclinical evaluation of tigilanol tiglate analogs as latency-reversing agents for the eradication of HIV” (Science Advances, 2025) can be followed below.

pKi: −log10 of the molar value. Read-outs that look alike come from different tables or passages of the source.

This assay has as its target T1, PKC-δ (Homo sapiens, UniProt Q05655).
T1 construct: purchased Invitrogen (Sinobiological for the SUW402 experiment)
The experiment in a line: Cell-free PKC competition binding assay against 3H-PDBu. The source says: With a diverse library of compounds bearing unique functionalities on the A-, B-, and C-rings (Fig. 6), we began to explore how these modifications affect PKC binding (Fig. 7A), NF-κB activation (Fig. 7B), cell permeation and PKC translocation (Fig. 7, C and D), and latency reversal in J-Lat cells (Fig. 8). […] We conducted this assay with phosphatidyl serine vesicles in solution that mimic the cellular membrane and play a critical role in the binding of small molecules to the PKC C1 domain (Fig. 7A) ([64]).
Cell-free PKC Binding Assay
The protein kinase C (PKC) affinity of EBC-46 and EBC-46 analogs was determined via competition with 3H-phorbol-12,13-dibutyrate (3H-PDBu) as described below. This procedure entails a glass-fiber filtration method to determine bound radioligand. The method of determining the radioligand Kd is also described.
Tris HCl (Fisher, ≥ 99%, stored at room temperature)
Phosphatidylserine (Avanti Polar Lipids, porcine, 25 mg/mL CHCl3 solution, stored at - […]
Bovine serum albumin (Sigma -Aldrich, ≥ 98%, globulin free, protease free, stored at 4 […]
Human PKC-β-I-GST fusion protein (Invitrogen, aliquoted and stored at -78 °C) Human PKC-δ-GST fusion protein (Invitrogen, aliquoted and stored at -78 °C) Glass-fiber filters (Whatman GF/B)
Preparation of 3H -PDBu solution : […]
a final concentration of 500 nM.
Preparation of phosphatidylserine (PS) vesicles :
For every 96 samples, 3.5 mg phosphatidylserine (140 μL) (25 mg/mL CHCl3 solution) was concentrated by removing chloroform under reduced pressure. The phosphatidylserine residue was resuspended in freshly prepared PKC binding assay buffer (3.5 mL), capped, and then thoroughly mixed by alternating between sonicating and vortexing, in 10 second intervals for 1 minute or until a cloudy white mixture (Branson Sonifier 250, power = 2, 50% duty cycle). The resulting cloudy white mixture (1 mg/mL) was stored on ic e until use.
Preparation of the "master mix" Solution :
Constituent Stock concentration (final concentration/amount in “master mix”):
PS vesicles (0.103 mg/mL)
Deionized H2O - Final vol of 30 mL
Preparation of PKC binding assay buffer:
For every 96 samples, to a 50 mL polypropylene tube was added Tris -HCl (pH 7.4, 1 M, 1.5 mL), KCl (1 M, 3 mL), CaCl2 (0.1 M, 35 μL – conventional isoforms only), and bovine serum albumin (60 mg). This mixture was diluted to 30 mL with deionized H2O and mixed gently. The buffer was […]
Preparation of PKC isoform solution:
For every 96 samples, PKC isoform solution was prepared by dissolving a 4 μg aliquot of the indicated recombinant human PKC isoform into 26.5 mL of PKC binding assay buffer. The diluted PKC was stored on ice for immediate use.
Preparation of PKC “master mix” solution:
To the PKC-isoform solution was added 1 mg/mL PS vesicles solution (3.30 mL), and 500 nM […]
The resulting “master mix” solution was vortexed and stored on […]
Preparation of analog compound dilutions:
Compound dilutions were prepared with filtered DMSO by serially diluting from a chosen "high" concentration. For the saturation binding experiment (radioligand Kd determination), the maximum radioligand concentration used was 4.0 nM with 2-fold dilutions between data points […]
isoforms ranges from 0.3 – 0.8 nM. […]
the middle of the binding curve.
For the competition binding experiment (analog Ki determination), 7 or 14 concentrations were used to define the inhibition curve, and compounds dilutions changed by factors of 2 or √2 between data points. The concentrations were chosen such that the in-assay concentration for the data points in the middle of the binding curve were approximately equal to the IC50 of the compound (if the IC50 is unknown, an exploratory binding assay is recommended prior to Ki determination). For assays with one compound per sheet, the √2-fold dilutions were prepared for the concentrations in the middle of the curve (e.g., for SUW400, the analog dilutions used were 15000 nM, 7500 nM, […]
PKC binding assay protocol (Saturation -binding experiment and Competition -binding experiment) […]

Setting [1] is: HotNM 2.5, HotKdNM 0.62, supplement fit, read-out: Ki (best-fit value), PKC-δ.
[2] abbreviates: competition against radiolabeled PDBu, Fig. 7A and text, read-out: Ki PKC-δ.
[3] abbreviates: log of Ki in nM, HotNM 2.5, HotKdNM 0.62.

T1 sequence (Q05655 whole entry): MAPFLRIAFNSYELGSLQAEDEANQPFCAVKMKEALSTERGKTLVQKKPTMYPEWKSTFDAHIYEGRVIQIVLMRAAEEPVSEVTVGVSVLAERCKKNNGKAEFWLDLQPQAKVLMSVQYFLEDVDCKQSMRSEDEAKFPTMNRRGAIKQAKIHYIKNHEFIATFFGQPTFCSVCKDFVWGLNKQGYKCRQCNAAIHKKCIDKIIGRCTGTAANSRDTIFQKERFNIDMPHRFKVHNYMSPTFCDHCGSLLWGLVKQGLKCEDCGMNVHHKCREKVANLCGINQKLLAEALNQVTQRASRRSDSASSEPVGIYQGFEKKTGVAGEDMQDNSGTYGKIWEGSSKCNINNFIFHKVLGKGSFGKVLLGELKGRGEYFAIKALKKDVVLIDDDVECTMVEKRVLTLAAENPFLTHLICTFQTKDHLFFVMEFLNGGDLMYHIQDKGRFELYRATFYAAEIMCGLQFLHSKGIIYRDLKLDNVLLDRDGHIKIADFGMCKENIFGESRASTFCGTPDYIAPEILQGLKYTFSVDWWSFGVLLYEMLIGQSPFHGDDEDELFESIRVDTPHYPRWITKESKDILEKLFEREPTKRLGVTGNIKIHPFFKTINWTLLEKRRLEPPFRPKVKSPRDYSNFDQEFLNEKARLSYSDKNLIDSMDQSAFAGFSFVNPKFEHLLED

With `C/C=C(\C)C(=O)O[C@@H]1[C@@H](C)[C@@]2(O)[C@H]([C@@H]3C(C)(C)[C@]13OC(=O)[C@H](C)CC)[C@@H]1O[C@]1(CO)[C@@H](O)[C@]1(O)C(=O)C(C)=C[C@H]12` [SUW407], the pKi – broadly, −log10 of the Ki, conventionally taken in molar units – was 8.43 under setting [1] and 8.43 under setting [2]. Further, the “logKi (best-fit value), PKC-δ” value under setting [3] is 0.5722.

On to `C/C=C(\C)C(=O)O[C@@H]1[C@@H](C)[C@]2(O)[C@@H]3C=C(C)[C@H](OC(=O)C=C(C)C)[C@@]3(O)[C@H](O)C(CO)=C[C@H]2[C@@H]2C(C)(C)[C@]12OC(=O)[C@@H](C)CC` [SUW425], for which the pKi is 8.33 under setting [1] and 8.33 under setting [2]. Under setting [3], the “logKi (best-fit value), PKC-δ” value was determined as 0.6748.

For the compound `CC[C@H](C)C(=O)O[C@@]12[C@H](OC(=O)C3(C)CC3)[C@@H](C)[C@@]3(O)[C@H]([C@@H]1C2(C)C)[C@@H]1O[C@]1(CO)[C@@H](O)[C@]1(O)C(=O)C(C)=C[C@H]13` [SUW413], the pKi is, setting by setting: under setting [1], 8.01; under setting [2], 8.01. Also, the “logKi (best-fit value), PKC-δ” value under setting [3] is 0.9851.

Turning to `C/C=C(\C)C(=O)O[C@@H]1[C@@H](C)[C@]2(O)[C@@H]3C=C(C)[C@H](OC(=O)c4ccccc4)[C@@]3(O)[C@H](O)C(CO)=C[C@H]2[C@@H]2C(C)(C)[C@]12OC(=O)[C@@H](C)CC` [SUW422], under setting [1], the pKi is 8.52. Moreover, under setting [3], the “logKi (best-fit value), PKC-δ” value was 0.4832.

For `CC=C(C)C(=O)OC1C(C)C2(O)C(C3OC3(COC)C(O)C3(O)C(=O)C(C)=CC32)C2C(C)(C)C12OC(=O)C(C)CC` (stereo not drawn) [SUW426], the “logKi (best-fit value), PKC-δ” value (HotNM 5, HotKdNM 0.72) is 2.846. Besides, the negative logarithm of the Ki (pKi) by setting is: (HotNM 5, HotKdNM 0.72, read-out: Ki (best-fit value), PKC-δ) 6.15; under setting [2], 6.15.

As for `C/C=C(\C)C(=O)O[C@@H]1[C@@H](C)[C@]2(O)[C@@H]3C=C(C)C(=O)[C@@]3(O)[C@H](O)C(CO)=C[C@H]2[C@@H]2C(C)(C)[C@]12OC(=O)[C@@H](C)CC` [SUW400], the pKi is, setting by setting: under setting [1], 8.60; under setting [2], 8.60. In addition, the “logKi (best-fit value), PKC-δ” value under setting [3] amounted to 0.4034.

With `CC[C@H](C)C(=O)O[C@@]12[C@H](OC(C)(C)C)[C@@H](C)[C@@]3(O)[C@H]([C@@H]1C2(C)C)[C@@H]1O[C@]1(CO)[C@@H](O)[C@]1(O)C(=O)C(C)=C[C@H]13` [SUW430], the “weaker binding affinity for PKC-δ than EBC-46” value is ~ 20 ×. Besides, the pKi under setting [1] is 7.22. The pKi under setting [2] was 7.22. Moreover, under setting [3], the “logKi (best-fit value), PKC-δ” value came to 1.776.

Take `C/C=C(\C)C(=O)O[C@@H]1[C@@H](C)[C@@]2(O)[C@H]([C@@H]3C(C)(C)[C@]13OC(=O)Cc1cccc3ccccc13)[C@@H]1O[C@]1(CO)[C@@H](O)[C@]1(O)C(=O)C(C)=C[C@H]12` [SUW431]: the “stronger binding for PKC-δ compared to EBC-46” value amounted to 30 fold. Besides, the pKi under setting [1] was 9.94. Further, the “greater affinity to PKC-δ than that reported for SUW013” value (comparison with literature value) is given as “approximately 10 fold”. In addition, the “logKi (best-fit value), PKC-δ” value under setting [3] is -0.9424. For the same compound, for the setting “read-out: binding for PKC-δ (Ki)”, the pKi is 9.96.

In the case of `C/C=C(\C)C(=O)O[C@@H]1[C@@H](C)[C@@]2(O)[C@@H](C=C(CO)C[C@]3(O)C(=O)C(C)=C[C@@H]23)[C@@H]2C(C)(C)[C@]12OC(=O)[C@@H](C)CC` [SUW402], for the setting “PKC-δ-GST from a different vendor (Sinobiological), HotNM 2.5, HotKdNM 2.94”, the “logKi (best-fit value), PKC-δ” value was -0.3561. Also, the pKi reads like this: (PKC-δ-GST from a different vendor (Sinobiological), HotNM 2.5, HotKdNM 2.94, read-out: Ki (best-fit value), PKC-δ) 9.36; under setting [2], 9.36.

For the compound `CC=C(C)C(=O)OC1C(C)C2(O)C(C3OC3(CO)CC3(O)C(=O)C(C)=CC32)C2C(C)(C)C12OC(=O)C(C)CC` (stereo not drawn) [SUW403], the negative-log Ki (pKi) under setting [1] was 7.67 and the pKi under setting [2] was 7.68. For the same compound, the “logKi (best-fit value), PKC-δ” value under setting [3] is on record as 1.330.

Take `C/C=C(\C)C(=O)O[C@@H]1[C@@H](C)[C@@]2(O)[C@H]([C@@H]3C(C)(C)[C@]13OC(=O)C1CCC1)[C@@H]1O[C@]1(CO)[C@@H](O)[C@]1(O)C(=O)C(C)=C[C@H]12` [SUW406]: the pKi under setting [1] is 8.12 and the negative-log Ki (pKi) under setting [2] was 8.12. In addition, the “logKi (best-fit value), PKC-δ” value under setting [3] came out at 0.8752.

Regarding `C/C=C(\C)C(=O)O[C@@H]1[C@@H](C)[C@@]2(O)[C@H]([C@@H]3C(C)(C)[C@]13OC(=O)N1CCCC1)[C@@H]1O[C@]1(CO)[C@@H](O)[C@]1(O)C(=O)C(C)=C[C@H]12` [SUW421], the negative logarithm of the Ki (pKi) was 6.71 under setting [1] and 6.72 under setting [2]. Moreover, the “logKi (best-fit value), PKC-δ” value under setting [3] stood at 2.288.

On to `C/C=C(\C)C(=O)O[C@@H]1[C@@H](C)[C@@]2(O)[C@H]([C@@H]3C(C)(C)[C@]13OC(=O)[C@@H](C)CC)[C@@H]1O[C@]1(CO)[C@@H](O)[C@]1(O)C(=O)C(C)=C[C@H]12` [EBC-46, Tigilanol tiglate], for which the pKi was 8.49 under setting [1] and 8.49 under setting [2]. Also, the “logKi (best-fit value), PKC-δ” value under setting [3] came to 0.5102.

Consider `C/C=C(\C)C(=O)O[C@@H]1[C@@H](C)[C@@]2(O)[C@H]([C@@H]3C(C)(C)[C@]13OC(=O)c1ccccc1)[C@@H]1O[C@]1(CO)[C@@H](O)[C@]1(O)C(=O)C(C)=C[C@H]12` [SUW428], for which the “weaker binding affinity for PKC-δ than EBC-46” value was ~ 20 ×. The negative logarithm of the Ki (pKi) under setting [1] is 7.19. Further, under setting [2], the negative logarithm of the Ki (pKi) is 7.19. For the same compound, the “logKi (best-fit value), PKC-δ” value under setting [3] is 1.808.

On to `CC[C@H](C)C(=O)O[C@@]12[C@H](OC(=O)N3CCCC3)[C@@H](C)[C@@]3(O)[C@H]([C@@H]1C2(C)C)[C@@H]1O[C@]1(CO)[C@@H](O)[C@]1(O)C(=O)C(C)=C[C@H]13` [SUW424], for which the negative-log Ki (pKi) is 6.76 under setting [1] and 6.77 under setting [2]. Also, the “logKi (best-fit value), PKC-δ” value under setting [3] stood at 2.242.
